# Measurements as given in US20240024273A1, “TOPICAL ADMINISTRATION OF 2-(DIETHYLAMINO)ETHYL 2-(4-ISOBUTYLPHENYL)PROPRIONATE FOR TREATMENT OF DISEASES” (TECHFIELDS PHARMA CO., LTD., priority 2020, published 2024).
# System: Subjects with Osteoarthritis of the Knee
# Assay: Second Phase 2 study: safety (treatment-emergent adverse events)
# Type: in vivo, human
# Details: 17.5 mg/knee, BID, N = 70
# From the text: Safety assessments will be performed at each visit and will include assessment of AEs, vital signs (blood pressure, pulse rate, and oral temperature), clinical laboratories, physical examination, skin irritation, and electrocardiograms (ECGs) as indicated in the study flow chart, Table 47.
# Safety assessments will include AEs, vital signs (blood pressures, pulse rate, and oral temperature), clinical laboratories, physical examination, skin irritation, and ECGs at various time points during the study as indicated in the study flow chart.
# Adverse events of interest include: local skin reactions around the treated knee(s), upper stomach pain, GI bleeding, serious cardiovascular side effects (e.g., thrombotic events, myocardial infarction, or stroke), jaundice, elevated liver function tests, and nausea.
# Safety analyses will be conducted on the SAS. Safety parameters will be listed and summarized using standard descriptive statistics, as appropriate. No formal statistical analyses are planned.
compound,measurement,value
CCN(CC)CCOC(=O)C(C)c1ccc(CC(C)C)cc1 (stereo not shown) [2-(diethylamino)ethyl 2-(4-isobutylphenyl)propionate],Aspartate Aminotransferase Increased: number of adverse events,1
same,Aspartate Aminotransferase Increased: percentage of subjects with adverse events,1.4%
same,Aspartate Aminotransferase Increased: subjects with adverse events,1
same,Back Pain: number of adverse events,1(%)[1]
same,"Back Pain: subjects with adverse events, number (percentage)",1(%)[1]
same,Constipation: number of adverse events,1
same,Constipation: percentage of subjects with adverse events,1.4%
same,Constipation: subjects with adverse events,1
same,Cough: number of adverse events,2
same,"Cough: subjects with adverse events, number (percentage)",2(2.9%)
same,Dizziness: number of adverse events,1
same,"Dizziness: subjects with adverse events, number (percentage)",1(1.4%)
same,Frequency of Positive Fecal Occult Blood Test,5
same,Gastrointestinal Disorders: number of adverse events,5
same,Gastrointestinal Disorders: percentage of subjects with adverse events,5.7%
same,Gastrointestinal Disorders: subjects with adverse events,4
same,Gout: number of adverse events,1
same,Gout: percentage of subjects with adverse events,1.4%
same,Gout: subjects with adverse events,1
same,Headache: number of adverse events,1
same,"Headache: subjects with adverse events, number (percentage)",1(1.4%)
same,Hypercholesterolaemia: number of adverse events,2
same,Hypercholesterolaemia: percentage of subjects with adverse events,2.9%
same,Hypercholesterolaemia: subjects with adverse events,2
same,Hypertriglyceridemia: number of adverse events,6
same,Hypertriglyceridemia: percentage of subjects with adverse events,8.6%
same,Hypertriglyceridemia: subjects with adverse events,6
same,Infections and Infestations: number of adverse events,14
same,"Infections and Infestations: subjects with adverse events, number (percentage)",13(18.6%)
same,Investigations: number of adverse events,1
same,Investigations: percentage of subjects with adverse events,1.4%
same,Investigations: subjects with adverse events,1
same,Metabolism and Nutrition Disorders: number of adverse events,9
same,Metabolism and Nutrition Disorders: percentage of subjects with adverse events,11.4%
same,Metabolism and Nutrition Disorders: subjects with adverse events,9
same,Muscle Spasms: number of adverse events,3
same,"Muscle Spasms: subjects with adverse events, number (percentage)",2
same,Musculoskeletal Pain: number of adverse events,2
same,"Musculoskeletal Pain: subjects with adverse events, number (percentage)",1
same,"Musculoskeletal and Connective Tissue Disorders, Overall Total: number of adverse events",8
same,"Musculoskeletal and Connective Tissue Disorders, Overall Total: subjects with adverse events, number (percentage)",6(8.6%)
same,Neck Pain: number of adverse events,1(%)[1]
same,"Neck Pain: subjects with adverse events, number (percentage)",1(%)[1]
same,Nervous System Disorders: number of adverse events,2
same,"Nervous System Disorders: subjects with adverse events, number (percentage)",2(2.9%)
same,Pain in Extremity: number of adverse events,1(%)[1]
same,"Pain in Extremity: subjects with adverse events, number (percentage)",1(%)[1]
same,Rash: number of adverse events,2
same,Rash: percentage of subjects with adverse events,4.2%
same,Rash: subjects with adverse events,2
same,"Respiratory, Thoracic and Mediastinal Disorders: number of adverse events",2
same,"Respiratory, Thoracic and Mediastinal Disorders: subjects with adverse events, number (percentage)",2(2.9%)
same,Skin Irritation: number of adverse events,4
same,Skin Irritation: percentage of subjects with adverse events,1.4%
same,Skin Irritation: subjects with adverse events,3
same,Skin and Subcutaneous Tissue Disorders: number of adverse events,6
same,Skin and Subcutaneous Tissue Disorders: percentage of subjects with adverse events,7.1%
same,Skin and Subcutaneous Tissue Disorders: subjects with adverse events,5
same,Subjects with Positive Fecal Occult Blood Test,5
same,"Subjects with Positive Fecal Occult Blood Test, percentage",7.1%
same,Toothache: number of adverse events,1
